In the supplement of paper PMC10307832:

compound: C(C(=O)C(=O)O)Br [Bromopyruvate] + CC(=O)Nc1cccc(-n2c(=O)n(C3CC3)c(=O)c3c(Nc4ccc(I)cc4F)n(C)c(=O)c(C)c32)c1 [Trametinib] (partner 0.02 µM); experiment: relative viability (nuclei count vs DMSO), 5 days (fraction); higher = more cells survive; conditions: first compound 1 µM
Method in brief: (§1)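 One day after seeding in 1536-well plates, lung cancer cell lines were dosed by pin tool. Dosing was either single-drug or a fixed anchor-drug dose plus five library-drug doses (not always all listed) in √10 steps. After 5 days, nuclei were stained in one fix-and-stain step and counted on 4× images, and relative viability is the nuclei count of treated wells over that of vehicle wells, given as the median of duplicate plates.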

Cell Line	relative viability
NCI-H1993	0.52
PC-14	0.8
LCLC-103H	0.681
NCI-H596	0.743
NCI-H2228	0.472
EMC-BAC-2	0.753
NCI-H2087	0.224
HCC-366	0.361
NCI-H1666	0.865
NCI-H647	0.425
LK-2	0.742
NCI-H2126	0.547
NCI-H2342	0.757
SK-MES-1	0.631
H3255	0.55
COR-L23	0.585

Cell Line	relative viability
COR-L 105	0.432
LOU-NH91	0.79
ChaGo-K-1	0.887
NCI-H2170	0.918
NCI-H3122	0.223
HOP-62	0.405
HCC-44	1.08
SW 900	0.865
LU99A	0.521
NCI-H1648	0.349
NCI-H1395	0.982
CAL-12T	0.302
NCI-H1793	0.469
NCI-H1944	0.428
NCI-H358	0.145

same assay, conditions: first compound 3.162 µM

Cell Line	relative viability
NCI-H522	0.671
NCI-H838	0.529
NCI-H1650	0.482
NCI-H2009	0.328
NCI-H1993	0.561
PC-14	0.717
LCLC-103H	0.692
NCI-H596	0.84
NCI-H2228	0.505
EMC-BAC-2	1.01
NCI-H2087	0.189
HCC-366	0.322
NCI-H1666	0.858
NCI-H647	0.472
LK-2	0.92
NCI-H2126	0.579
NCI-H2342	0.912
SK-MES-1	0.547

Cell Line	relative viability
H3255	0.547
COR-L23	0.652
COR-L 105	0.449
LOU-NH91	0.761
ChaGo-K-1	0.911
NCI-H2170	0.923
NCI-H3122	0.237
HOP-62	0.343
HCC-44	1.02
SW 900	0.76
LU99A	0.531
NCI-H1648	0.413
NCI-H1395	0.977
CAL-12T	0.285
NCI-H1793	0.496
NCI-H1944	0.376
NCI-H358	0.132

same assay, conditions: first compound 10 µM

Cell Line	relative viability
NCI-H522	0.778
NCI-H838	0.68
NCI-H1650	0.643
NCI-H2009	0.246
NCI-H1993	0.493
PC-14	0.953
LCLC-103H	0.696
NCI-H596	0.789
NCI-H2228	0.548
EMC-BAC-2	0.985
NCI-H2087	0.156
HCC-366	0.41
NCI-H1666	0.825
NCI-H647	0.665
LK-2	0.872
NCI-H2126	0.559
NCI-H2342	0.779
SK-MES-1	0.511

Cell Line	relative viability
H3255	0.647
COR-L23	0.651
COR-L 105	0.417
LOU-NH91	0.799
ChaGo-K-1	0.963
NCI-H2170	0.99
NCI-H3122	0.24
HOP-62	0.372
HCC-44	1.04
SW 900	0.92
LU99A	0.621
NCI-H1648	0.472
NCI-H1395	1.16
CAL-12T	0.393
NCI-H1793	0.503
NCI-H1944	0.409
NCI-H358	0.139

same assay, conditions: first compound 31.62 µM

Cell Line	relative viability
NCI-H522	0.92
NCI-H838	0.539
NCI-H1650	0.572
NCI-H2009	0.26
NCI-H1993	0.533
PC-14	0.718
LCLC-103H	0.693
NCI-H596	0.74
NCI-H2228	0.514
NCI-H2087	0.175
HCC-366	0.359
NCI-H1666	0.852
NCI-H647	0.473
LK-2	0.782
NCI-H2126	0.591
NCI-H2342	0.696
SK-MES-1	0.578

Cell Line	relative viability
H3255	0.574
COR-L23	0.582
COR-L 105	0.422
LOU-NH91	0.826
ChaGo-K-1	0.855
NCI-H2170	0.902
NCI-H3122	0.204
HOP-62	0.408
HCC-44	1.11
SW 900	0.729
LU99A	0.564
NCI-H1648	0.545
NCI-H1395	1.02
CAL-12T	0.347
NCI-H1793	0.485
NCI-H1944	0.435
NCI-H358	0.128

same assay, conditions: first compound 100 µM

Cell Line	relative viability
NCI-H522	0.757
NCI-H838	0.516
NCI-H1650	0.515
NCI-H2009	0.245
NCI-H1993	0.535
PC-14	0.753
LCLC-103H	0.767
NCI-H596	0.845
NCI-H2228	0.538
EMC-BAC-2	0.959
NCI-H2087	0.185
HCC-366	0.322
NCI-H1666	0.911
NCI-H647	0.488
LK-2	0.519
NCI-H2126	0.57
NCI-H2342	0.736
SK-MES-1	0.574

Cell Line	relative viability
H3255	0.718
COR-L23	0.544
COR-L 105	0.329
LOU-NH91	0.866
ChaGo-K-1	0.903
NCI-H2170	0.925
NCI-H3122	0.129
HOP-62	0.485
HCC-44	1
SW 900	0.739
LU99A	0.661
NCI-H1648	0.482
NCI-H1395	1.08
CAL-12T	0.307
NCI-H1793	0.49
NCI-H1944	0.398
NCI-H358	0.133

compound: C(C(=O)C(=O)O)Br [Bromopyruvate] + CC(C)C[C@H](NC(=O)[C@H](Cc1ccccc1)NC(=O)c1cnccn1)B(O)O [Bortezomib] (partner 0.002 µM); experiment: as above; conditions: first compound 1 µM
Method in brief: as §1

Cell Line	relative viability
NCI-H838	0.915
NCI-H1650	0.196
EBC-1	0.527
NCI-H1703	0.369
NCI-H2009	1.02
NCI-H1993	1.34
PC-14	0.958
LCLC-103H	1.05
NCI-H2228	0.857
EMC-BAC-2	0.99
NCI-H2087	0.878
Calu-6	1.09
HCC-366	1.04
NCI-H1666	0.804
NCI-H647	0.93
NCI-H2126	1.1
H3255	0.877
COR-L23	0.943
COR-L 105	0.559
IA-LM	0.872
LOU-NH91	0.499
ChaGo-K-1	1.08
NCI-H3122	1.02
HOP-62	0.739
HCC-44	0.914
LU99A	1.18
NCI-H1299	0.973
CAL-12T	1.04
NCI-H1563	0.859
ABC-1	0.342

same assay, conditions: first compound 3.162 µM

Cell Line	relative viability
NCI-H838	0.886
NCI-H1650	0.194
EBC-1	0.67
NCI-H1703	0.244
NCI-H2009	1.02
NCI-H1993	0.954
PC-14	0.873
LCLC-103H	0.998
NCI-H596	1.14
NCI-H2228	1.15
EMC-BAC-2	1.14
NCI-H2087	0.772
Calu-6	1.05
HCC-366	1.06
NCI-H1666	0.847
NCI-H647	1.01

Cell Line	relative viability
NCI-H2126	1.05
H3255	0.723
COR-L23	0.939
COR-L 105	0.876
IA-LM	0.835
LOU-NH91	0.499
ChaGo-K-1	1.02
NCI-H3122	1.01
HOP-62	0.832
HCC-44	0.897
LU99A	1.11
NCI-H1299	1.02
CAL-12T	1.08
NCI-H1563	0.925
ABC-1	0.31

same assay, conditions: first compound 10 µM

Cell Line	relative viability
NCI-H838	0.773
NCI-H1650	0.209
EBC-1	0.56
NCI-H1703	0.366
NCI-H2009	0.918
NCI-H1993	1.21
PC-14	0.883
LCLC-103H	1.06
NCI-H596	1.01
NCI-H2228	1.36
EMC-BAC-2	1.2
NCI-H2087	0.772
Calu-6	1.07
HCC-366	1.38
NCI-H1666	0.638
NCI-H647	1
NCI-H2126	1.12
H3255	0.981
COR-L23	1.12
COR-L 105	0.526
IA-LM	0.908
LOU-NH91	0.518
ChaGo-K-1	1.01
NCI-H3122	1.07
HCC-44	0.872
LU99A	1.05
NCI-H1299	1.06
CAL-12T	0.904
NCI-H1563	0.868

same assay, conditions: first compound 31.62 µM

Cell Line	relative viability
NCI-H838	0.786
NCI-H1650	0.255
EBC-1	0.574
NCI-H1703	0.315
NCI-H2009	0.897
NCI-H1993	1.08
PC-14	1
LCLC-103H	1.08
NCI-H596	0.915
NCI-H2228	0.817
EMC-BAC-2	1.02
NCI-H2087	0.793
Calu-6	0.993
HCC-366	1.09
NCI-H1666	0.89
NCI-H647	1.18

Cell Line	relative viability
NCI-H2126	1.14
H3255	0.719
COR-L23	0.975
COR-L 105	0.769
IA-LM	0.835
LOU-NH91	0.49
ChaGo-K-1	1.07
NCI-H3122	0.971
HOP-62	0.547
HCC-44	0.918
LU99A	1.05
NCI-H1299	0.956
CAL-12T	0.977
NCI-H1563	0.789
ABC-1	0.347

same assay, conditions: first compound 100 µM

Cell Line	relative viability
NCI-H838	0.763
NCI-H1650	0.19
EBC-1	0.511
NCI-H1703	0.543
NCI-H2009	0.768
NCI-H1993	1.15
PC-14	0.912
LCLC-103H	1.16
NCI-H596	1.03
NCI-H2228	0.946
EMC-BAC-2	1.12
NCI-H2087	0.9
Calu-6	0.903
HCC-366	1.18
NCI-H1666	0.819
NCI-H647	0.961

Cell Line	relative viability
NCI-H2126	1.15
H3255	0.892
COR-L23	0.486
COR-L 105	0.566
IA-LM	0.64
LOU-NH91	0.472
ChaGo-K-1	0.953
NCI-H3122	1.02
HOP-62	0.628
HCC-44	0.962
LU99A	1.26
NCI-H1299	1
CAL-12T	0.934
NCI-H1563	0.943
ABC-1	0.332
